# Test system: oxazolone-induced colitis mice
# Assay: Oxazolone-induced acute colitis in mice for ulcerative colitis
# Format: in vivo, Balb/c mice
# Conditions: compound 1 5 mg/kg, tofacitinib 10 mg/kg; for bodyweight loss (bodyweight change, FIG. 1): PO BID 5 days (Days 4 to 8 after sensitization) in 0.5% CMC-Na; for DAI score (disease activity index, FIG. 2): PO BID 5 days, scored per Table 2; for colon density (FIG. 5) / colon length (FIG. 4) / colon weight (FIG. 3): colon collected Day 9, PO BID 5 days
# Description: Compound 1 (i.e., lifitegrast) was evaluated in an oxazolone-induced colitis murine model, along with tofacitinib. Boirivant et al., J. Exp. Med. 1998, 188, 1929-39. Balb/c mice were randomly divided into 4 groups according to Table 1: 2 treatment groups (Treatment Groups), 1 vehicle group (Vehicle Group), and 1 sham group (Sham Group). The mice in Treatment and Vehicle Groups were sensitized with 200 μL of 2% oxazolone in acetone and olive oil (1:4), followed by injection of 100 μL of 1.5% oxazolone into the rectum of each mouse on Day 5 after sensitization. The mice in Sham Group were sensitized with 200 μL of a mixture of acetone and olive oil (1:4) without oxazolone, followed by injection of 100 μL of 50% ethanol/water into the rectum of each mouse on Day 5 after sensitization. Before the injection into the rectum, each mouse was anesthetized intraperitoneally with tribromoethanol (0.3 mL, 1.25%). From Days 4 to 8 after sensitization, the mice in Sham Group and Vehicle Group were each given 0.5% CMC-Na by gavage, and the mice in Treatment Groups were each given by gavage tofacitinib or compound 1 in 0.5% CMC-Na, respectively, according to the dosing schedule shown in Table 1.
# The bodyweight of each mouse was measured daily. From Day 4 after sensitization, the fecal property and occult blood as determined with a fecal occult blood test (FOBT) of each mouse were measured daily to calculate a disease activity index (DAI) according to Table 2.
# On Day 9 after sensitization, each mouse was euthanized and blood was collected from the heart. A serum was prepared and frozen for the determination of inflammatory factors.
# The colon of each mouse was collected and photographed, and the colon length was measured and weighed after the removal of the content of the colon. A part of each colon collected was fixed using the Swiss roll technique in neutral paraformaldehyde for pathological scoring (Table 3) as described in Bialkowska et al., J. Vis. Exp. 2016, 113, e54161. The rest of the colon mucosa of each mouse was scraped and frozen for the determination of inflammatory factors.
Compound,"bodyweight loss (bodyweight change, FIG. 1)","DAI score (disease activity index, FIG. 2)",colon density (FIG. 5),colon length (FIG. 4),colon weight (FIG. 3)
"CS(=O)(=O)c1cccc(C[C@H](NC(=O)c2c(Cl)cc3c(c2Cl)CCN(C(=O)c2ccc4ccoc4c2)C3)C(=O)O)c1 [compound 1, (S)-2-(2-(benzofuran-6-carbonyl)-5,7-dichloro-1,2,3,4-tetrahydroisoquinoline-6-carboxamido)-3-(3-(methylsulfonyl)phenyl)propanoic acid]",slowed the bodyweight loss,improved the DAI score,able to reverse the disease effects,able to reverse the disease effects,able to reverse the disease effects
C[C@@H]1CCN(C(=O)CC#N)C[C@@H]1N(C)c1ncnc2[nH]ccc12 [tofacitinib],slowed the bodyweight loss,improved the DAI score,able to reverse the disease effects,able to reverse the disease effects,able to reverse the disease effects

# Source: patent US20240197713A1, “LFA-1 ANTAGONISTS FOR TREATING INFLAMMATORY BOWEL DIESEASE” (VivaVision Biotech, Inc, priority 2022, published 2024)
